The results in this text go back to article PMC10379010, “Short Peptides of Innate Immunity Protein Tag7 (PGLYRP1) Selectively Induce Inhibition or Activation of Tumor Cell Death via TNF Receptor” (International Journal of Molecular Sciences, 2023).

Where a SMILES comes first, the peptide text is derived from it.

One series deals with T1, Hsp70 (Homo sapiens, UniProt P0DMV8).
T1 construct: made in house
Nature of the series: Microscale thermophoresis, binding to labeled Hsp70. The settings on record: labeled Hsp70 200 nM, 16 ligand concentrations, 20 min, room temperature, triplicate, average ± SD, read-out: Apparent dissociation constant (Kd) with Hsp70. An excerpt: (§1) Protein–protein interactions of sTNFR1 and Hsp70 with the peptides 17.1, 17.1A and 17.1B and the Tag7 protein were quantified using microscale thermophoresis (MST). This biophysical method is based on the movement of molecules in a temperature gradient, which strongly depends on the charge, the hydration shell and the size of the moving molecules. At least one of these qualities usually changes during the formation of the complex. Therefore, thermophoresis provides a sensitive and reliable method for analyzing and quantifying protein–protein interactions. […] The obtained constants indicate a highly specific interaction of Tag7, 17.1 and 17.1A with sTNFR1. Similarly, clear changes in the thermophoretic signal were observed when Tag7, 17.1 and 17.1B were added to the labeled Hsp70. […]
(§2) The purified sTNFR1 and Hsp70 were fluorescently labeled using the Alexa Fluor 633 or Alexa Fluor 488 staining kit (Eugene, OR, USA) in accordance with the manufacturer’s instructions. sTNFR1 and Hsp70 (200 nM) were incubated for 20 min with each compound in the dark at room temperature at 16 different concentrations obtained by sequential dilution, starting from the highest soluble concentration. The samples were loaded into glass capillaries (Monolith NT Capillaries) and analyzed by thermophoresis using Nano-Temperature Monolith NT 115 apparatus (IR laser power 10%). […]
(MST reads how a fluorescent partner responds to local heating, with and without ligand.)

Series [1] concerns K562 cells (killed by cytotoxic CD4+-T lymphocytes). The series is described as follows: Inhibition of the cytotoxic activity of CD4+-T lymphocytes. The format is cell-based. The settings on record: K562 cells preincubated with peptide 30 min (1 nM), then cytotoxic lymphocytes, ratio 1:20, 24 h; Cytotox 96; n = 5. How it is done: Figure 5 (a) The peptides were biotinylated and added to cells of the K562 line, followed by incubation for 1 h. Next, the peptides were cross-linked with Hsp70 on the cell surface with BS^3 reagent (Sigma-Aldrich, St. Louis, MO, USA). After stopping the reaction, the cells were lysed in RIP-A (Sigma-Aldrich, St. Louis, MO, USA) buffer in the presence of protease inhibitors. The lysate was purified by magnetic separation on M280 Streptavidin Beads. The obtained fractions containing 17.1A-Hsp70 and 17.1B-Hsp70 were analyzed using 12% SDS-PAGE electrophoresis and Western blot. Complexes were detected using primary antibodies abHsp70 poly-AT and secondary antibodies anti-rabbit peroxidase-linked (ECL). (b) Tumor cells of the K562 line were preincubated with peptides 17.1, 17.1A and 17.1B for 30 min., and then cytotoxic lymphocytes were added and cytotoxic activity was determined (24 h incubation), n = 5 for each point, (* p-value < 0.05). […]
For the cytotoxicity tests, target cells were cultured in 96-well plates (6 × 10^4 cells per well) and mixed with lymphocytes at a ratio of 1:20. The cytotoxicity was measured after 24 h of incubation. […] The cytotoxic activity of the lymphocytes was determined using the Cytotox 96 analysis kit (Promega, Madison, WI, USA) in accordance with the manufacturer’s protocol.

In the next series the target is T2, sTNFR1 (Homo sapiens, UniProt P19438).
T2 construct: the soluble extracellular domain of its receptor (sTNFR1); made in house
T2 sequence (P19438 30-211 limits assumed): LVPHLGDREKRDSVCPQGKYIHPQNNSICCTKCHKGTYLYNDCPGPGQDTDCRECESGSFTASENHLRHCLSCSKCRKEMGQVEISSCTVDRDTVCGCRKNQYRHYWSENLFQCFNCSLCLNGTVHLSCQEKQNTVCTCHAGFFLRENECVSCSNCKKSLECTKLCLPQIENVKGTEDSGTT
Nature of the series: Microscale thermophoresis, binding to labeled sTNFR1. The settings on record: labeled sTNFR1 200 nM, 16 ligand concentrations, 20 min, room temperature, triplicate, average ± SD, read-out: Apparent dissociation constant (Kd) with sTNFR1.
Source text: as §1, §2

The test system of series [2] is L929 cells (TNFR1-induced cytotoxicity). The series is described as follows: Inhibition of TNFR1-dependent cytotoxicity, L929 cells. Conditions: 24 h, peptide added 30 min before TNF (1 nM), only at peptide concentration of 100 nM, n = 5. The format is cell-based, mouse. The method, then:
Figure 2 Cells (HL-60 (a–d) or L-929 (e,f)) were preincubated with peptide 17.1A (a,b) or 17.1B (c–f) for 30 min, and then a cytotoxic agent (TNF, Tag7-Hsp70 complex or autoantibodies) was added and cytotoxic activity was then determined after 3 (a,c,e) or 24 h (b,d,f) of cell incubation. n = 5 for each group). (* p-value < 0.05).
(L929 cells, 24 h of incubation, peptides were added 30 min before incubation with TNF (1 nM)) n = 5 for each point.
For the cytotoxicity tests, target cells were cultured in 96-well plates (6 × 10^4 cells per well) and mixed with lymphocytes at a ratio of 1:20. The cytotoxicity was measured after 24 h of incubation. The inhibition test was performed with peptides 17.1, 17.1A and 17.1B at a concentration of 1 nM. The cytotoxic activity of the lymphocytes was determined using the Cytotox 96 analysis kit (Promega, Madison, WI, USA) in accordance with the manufacturer’s protocol.

T1 sequence (P0DMV8 whole entry): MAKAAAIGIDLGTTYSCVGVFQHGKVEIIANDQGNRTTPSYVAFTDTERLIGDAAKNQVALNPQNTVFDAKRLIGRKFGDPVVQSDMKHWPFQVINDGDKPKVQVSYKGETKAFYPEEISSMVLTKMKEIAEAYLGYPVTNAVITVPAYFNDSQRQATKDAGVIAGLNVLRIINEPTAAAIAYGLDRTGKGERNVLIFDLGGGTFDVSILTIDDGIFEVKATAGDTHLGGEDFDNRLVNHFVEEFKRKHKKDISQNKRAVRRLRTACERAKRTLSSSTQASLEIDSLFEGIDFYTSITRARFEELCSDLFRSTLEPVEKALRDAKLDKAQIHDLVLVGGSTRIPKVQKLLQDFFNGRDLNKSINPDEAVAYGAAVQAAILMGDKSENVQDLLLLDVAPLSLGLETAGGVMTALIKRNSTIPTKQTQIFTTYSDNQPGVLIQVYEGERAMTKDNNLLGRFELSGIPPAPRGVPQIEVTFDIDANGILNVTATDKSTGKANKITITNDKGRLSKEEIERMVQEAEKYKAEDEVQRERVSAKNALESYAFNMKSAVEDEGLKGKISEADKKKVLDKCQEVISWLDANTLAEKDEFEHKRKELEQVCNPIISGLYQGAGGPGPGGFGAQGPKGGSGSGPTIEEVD

Take `CC(C)[C@H](NC(=O)[C@H](CC(=O)O)NC(=O)[C@H](CCCNC(=N)N)NC(=O)[C@@H](N)Cc1c[nH]cn1)C(=O)N[C@@H](CCC(N)=O)C(=O)N[C@@H](CCCNC(=N)N)C(=O)N[C@H](C(=O)O)[C@@H](C)O` [17.1A, HRDVQRT] (H-HRDVQRT-OH): the Kd on Hsp70 was 222 ± 15 nM. In addition, the “Effect on the cytotoxic activity of CD4+-T lymphocytes” value in series [1] is listed as “no effect on cell death”.
For `CC(C)C[C@H](NC(=O)[C@@H](NC(=O)[C@H](Cc1ccc(O)cc1)NC(=O)[C@H](CC(N)=O)NC(=O)[C@H](CO)NC(=O)[C@@H](N)CCCNC(=N)N)C(C)C)C(=O)N[C@@H](CCCCN)C(=O)NCC(=O)O` [17.1B, RSNYVLKG] (H-RSNYVLKG-OH), the values for the Kd at sTNFR1 and on Hsp70 were 6690 ± 120 nM and 3.15 ± 0.7 nM, respectively. Besides, the “Inhibitory effect on TNF cytotoxic activity at 100 nM” value in series [2] was “weak inhibitory effect”. Further, in series [1], the “Effect on the cytotoxic activity of CD4+-T lymphocytes” value is listed as “completely block the cytotoxic effect of lymphocytes”.
